Source: US5750547A, “Certain carbanate anti-cancer agents” (priority 1996, dated 1998)
pIC50: −log10 of the molar value. Where two headings read alike, the source gives them in different places.

Legend:
MDA-MB-231 cells = assay: In vitro cytotoxicity (MTT), MDA-MB-231 cells; format: cell-based, human
Excerpt: (§1) As suitable cell lines there may be mentioned: human adenocarcinoma cells (CRL-229, LoVo), human ovarian carcinoma cells (CRL-1572), human breast cancer cells (MDA-MB-231), normal mouse breast cells (HC-11), mouse leukaemia cells (CCL-46, P388D1), mouse leukaemia (CCL-219, L1210), CRL-1427, human promonocyte U937 and the like. Most of these cell lines are readily available from the American Type Culture Collection. Cells lines: 0-23, 0-23 clone 2.2, LR-73, LR-73 MDR-3, T47D and T47D (GST), having developed resistance to antineoplastic agents through different mechanisms of resistance were also tested in the same manner.
(§2) All cell lines are cultured by a standard procedure in RPMI-1640®mediumsupplemented with 10% fetal bovine serum and 100 ,pg/mL of penicillin and 100 μg/mL of streptomycin.
(§3) In order to evaluate the efficiency of the compounds of formula I, the following experiments are carried out. Cytotoxicity assays are conducted on LoVo, MDA-MB-231 and P388D1 cells. The choice of these cells has been motivated by the fact that they have been specifically identified as the cause of a large number of cancer in North America in the recent years.
(§4) Tumor cells are obtained from the American Type Culture Collection. The cells are suspended at a concentration of 2.5×10^4 cells/mL in a fresh culture media (RPMI-1640, supplemented with 10% fetal calf serum). The well plates (microtitration, 96 wells) are seeded with 100 μL of the cell suspension and incubated 24 hours at 37° C. in a humid atmosphere containing 5% CO2.100 μL of fresh culture media containing different concentrations of drugs to be tested (1 to 25 μM) are added in 8 wells of each plate, and the cells are further incubated for 3 additional days at 37° C. under the same conditions. Each experiment is conducted in triplicate. Cell survival is determined by MTT method, as taught in J. Immunol Methods, 1986, 89, 271 (Denizot et al.) and Int. J. Immunopharm, 1988. 10, 785 (Page et al). The method mainly consisted of a first removal of the culture media and addition to the plates of 20 μL of a MTT solution (5 mg/mL in PBS pH 7.4). The plates are incubated at 37° C. for 4 hours and then 200 μL of dimethylsuffoxide (DMSO) area added into the wells. The plates are agitated for 15 min at room temperature and the absorbance at 540 nm measured on Titertek MC Multiwell® spectrophotometer.
(§5) The method normally used by the American National Cancer Institute for the comparison of effectiveness between drugs is based upon ID50. The ID50 is the concentration at which half of tumor cell population is killed. A comparison of the antitumor agents of the present invention with chlorambucil, which is presently used commercially, is provided to illustrate the superiority of the former.

primary brain tumors = conditions: low doses; cited from earlier work
[1] = cited from earlier work; for biological half-life: approximately
[2] = administered orally or intravenously; cited from earlier work
LoVo cells = assay: In vitro cytotoxicity (MTT), LoVo cells; format: cell-based; conditions: Homo sapiens, 72 h
Excerpt: as §1, §2, §3, §4, §5

P388D1 cells = assay: In vitro cytotoxicity (MTT), P388D1 cells; format: cell-based; conditions: Mus musculus, P388D1, 72 h
Excerpt: as §1, §2, §3, §4, §5

[3] = Acute toxicity assay, i.p. in mice (survival); format: in vivo, BDF1 (C57BL/6×DBA/2) mice
Procedure: Chlorambucil and compound 36 of the present invention were dissolved in DMSO. Each drug solution was mixed with hydrogenated soybean oil in a ratio 1:9 v/v. 100 μL of this mixture was administered i.p. to BDF1 (C57BL/6×DBA/2) mice. For each concentration of drug, varying from 9.25 to 75 mg/kg for chlorambucil or from 9.25 to 296 mg/kg for compound 36, 6 mice were treated. Survival weight and fitness were measured as criteria of toxicity.

L1210 leukaemia cells = assay: Antineoplastic assay, L1210 leukaemia in BDF1 mice; format: in vivo; conditions: 10 mg/kg, i.p. daily day 1 to day 9, L1210 in BDF1 mice
Procedure: L1210 leukaemia cells suspended in RPM1-1640 were washed, centrifuged and re-suspended in phosphate buffer saline (PBS) at a concentration of 5×10^5 cells/mL. 200 μL of the suspension were injected i.p. to BDF1 mice. From day 1 to day 9, mice were treated daily according to the NCI procedure taught in Protocols for screening chemical agents and natural products against animal tumors and other biological systems (3rd edition). Cancer Chem. Rep. Part 3 3 (2): 1-103) with i.p. injections of 10 μL of drug solution in DMSO mixed with 90 μL of hydrogenated soybean oil. Chlorambucil was tested at 1, 5 and 10 mg/kg/day and compounds 36 and 4 at 1, 10 and 50 mg/kg/day. For each concentration, six mice were treated. Control groups were treated i.p. with 100 μL of hydrogenated soybean oil containing 10% (v/v) DMSO.
The antineoplastic activity of a drug on mice bearing cancer tumors is evaluated by a value known in the art as the median survival time (T/C %). This value of T/C % is obtained by dividing the median survival time of treated mice by that of untreated mice, and the quotient is multiplied by 100. When the value of T/C % is lower than 85, the drug is considered toxic. On the other hand, a survival time greater than 125 indicates a significant antineoplastic action of the drug on cancer tumors.

[4] = Table 2, 3 days incubation, MTT, read-out: ID50 (LoVo)
[5] = Homo sapiens, MDA-MB-231, 72 h, Table 2, 3 days incubation, MTT, read-out: ID50 (MDA-MB-231)
[6] = Table 2, 3 days incubation, MTT, read-out: ID50 (P388 D1)
[7] = Homo sapiens, MDA-MB-231, 72 h, Table 1, 3 days incubation, MTT, read-out: ID50 on tumor cells, MDA-MB-231
[8] = Table 1, 3 days incubation, MTT, read-out: ID50 on tumor cells, LoVo
[9] = Table 1, 3 days incubation, MTT, read-out: ID50 on tumor cells, P388D1

| Compound | pIC50 (LoVo cells; [4]) | pIC50 (MDA-MB-231 cells; [5]) | pIC50 (P388D1 cells; [6]) | further results |
| --- | --- | --- | --- | --- |
| 5-[3-(2-chloroethyl)ureido] 4,6-dimethyl pyridine [VIII] |  |  |  | pIC50 (MDA-MB-231 cells; Table 1, 3 days incubation, MTT, read-out: ID50 on tumor cells, MDA-MB-231): 4.30 |
| O=NN(CCCl)C(=O)NCCCl [Carmustine] |  |  |  | activity in primary brain tumors (primary brain tumors): active in primary brain tumors; biological half-life [1]: 1-1.5 h; percentage bound to plasma proteins [1]: over 90%; side effects [2]: nausea, vomiting, alopecia, lymphopenia, leucopenia and bone marrow depression |
| O=C(O)CCCc1ccc(N(CCCl)CCCl)cc1 [Chlorambucil, reference compound] |  |  |  | pIC50 (LoVo cells; read-out: ID50 (LoVo)): 5.05; pIC50 (MDA-MB-231 cells; Homo sapiens, MDA-MB-231, 72 h, read-out: ID50 (MDA-MB-231)): 4.96; pIC50 (P388D1 cells; read-out: ID50 (P388 D1)): 5.17; Acute toxicity, survival ([3]; 9.25 mg/kg i.p.): 6/6; Acute toxicity, survival ([3]; 18.5 mg/kg i.p.): 6/6; Acute toxicity, survival ([3]; 37 mg/kg i.p.): 6/6; Acute toxicity, survival ([3]; 75 mg/kg i.p.): 0/6; median survival time (T/C %) (L1210 leukaemia cells): 160%; biological half-life [1]: 1-1.5 h; percentage bound to plasma proteins [1]: over 90%; side effects [2]: nausea, vomiting, alopecia, lymphopenia, leucopenia and bone marrow depression |
| CCc1cccc(NC(=O)NCCCl)c1 [Compound 2] | 5.46 | 5.11 | 5.15 |  |
| CCCc1ccc(NC(=O)NCCCl)cc1 [Compound 3] | 5.01 | 4.92 | 4.96 |  |
| CC(C)c1ccc(NC(=O)NCCCl)cc1 [Compound 4] | 5.89 | 5.70 | 5.66 | median survival time (T/C %) (L1210 leukaemia cells): 164% |
| CCC(C)c1ccc(NC(=O)NCCCl)cc1 (stereo not shown) [Compound 5] | 5.80 | 5.66 | 5.62 |  |
| CCCCCc1ccc(NC(=O)NCCCl)cc1 [Compound 6] | 5.26 | 5.22 | 5.15 |  |
| CCCCCCc1ccc(NC(=O)NCCCl)cc1 [Compound 7] | 5.21 | 5.14 | 5.10 |  |
| O=C(NCCCl)Nc1ccc(C2CCCCC2)cc1 [Compound 8] | 4.66 | 4.54 | 4.66 |  |
| CCCCCCCc1ccc(NC(=O)NCCCl)cc1 [Compound 9] | 4.82 | 4.80 | 4.74 |  |
| CCCCCCCCc1ccc(NC(=O)NCCCl)cc1 [Compound 10] | 4.54 | 4.48 | 4.49 |  |
| CCOc1cccc(NC(=O)NCCCl)c1 [Compound 14] | 4.46 | 4.48 | 4.38 |  |
| CCCCCOc1ccc(NC(=O)NCCCl)cc1 [Compound 15] | 4.80 | 4.66 | 4.55 |  |
| CCCCCCOc1ccc(NC(=O)NCCCl)cc1 [Compound 16] | 4.80 | 4.66 | 4.77 |  |
| O=C(NCCCl)Nc1ccc(CCO)cc1 [Compound 36] |  |  |  | Acute toxicity, survival ([3]; 9.25 mg/kg i.p.): 6/6; Acute toxicity, survival ([3]; 18.5 mg/kg i.p.): 6/6; Acute toxicity, survival ([3]; 37 mg/kg i.p.): 6/6; Acute toxicity, survival ([3]; 75 mg/kg i.p.): 6/6; Acute toxicity, survival ([3]; 111 mg/kg i.p.): 6/6; Acute toxicity, survival ([3]; 148 mg/kg i.p.): 6/6; Acute toxicity, survival ([3]; 222 mg/kg i.p.): 6/6; Acute toxicity, survival ([3]; 296 mg/kg i.p.): 6/6; median survival time (T/C %) (L1210 leukaemia cells): 140% |
| CCSc1ccc(NC(=O)NCCCl)cc1 [Compound 39] |  | 4.77 |  |  |
| O=C(NCCCl)Oc1ccc([N+](=O)[O-])cc1 [Compound 40, 4-nitro phenyl N-(2chloroethyl) carbamate] | 5.15 | 5.00 | 5.09 |  |
| Cc1cc(OC(=O)NCCCl)ccc1[N+](=O)[O-] [Compound 47] | 5.14 | 5.12 | 5.10 |  |
| Cc1ccc(OC(=O)NCCCl)cc1C [Compound 50] | 4.52 | 4.40 | 4.40 |  |
| O=C(NCCCl)Oc1cccc(Cl)c1 [Compound 63] | 5.12 | 5.07 | 5.30 |  |
| O=C(NCCCl)Nc1ccc2[nH]ccc2c1 [IX, 5-[3-(2-chloroethyl)ureido]indole] |  |  |  | pIC50 (MDA-MB-231 cells; [7]): 4.15 |
| O=C(NCCCl)Nc1ccc2c(c1)Cc1ccccc1-2 [V, 2-[3-(2chloroethyl)ureido]fluorene] |  |  |  | pIC50 (LoVo cells; [8]): 5.30; pIC50 (MDA-MB-231 cells; [7]): 5.40; pIC50 (P388D1 cells; [9]): 5.40 |
| O=C(NCCCl)Nc1ccc2c(c1)CCC2 [VI, 5-[3-(2-chloroethyl)ureido]indane] |  |  |  | pIC50 (LoVo cells; [8]): 5.30; pIC50 (MDA-MB-231 cells; [7]): 5.15; pIC50 (P388D1 cells; [9]): 5.15 |
| O=C(NCCCl)Nc1ccc2cn[nH]c2c1 [VII, 6-[3-(2-chloroethyl)ureido]indazole] |  |  |  | pIC50 (LoVo cells; [8]): 4.51; pIC50 (MDA-MB-231 cells; [7]): 4.54; pIC50 (P388D1 cells; [9]): 4.12 |
